In patent US20240376087A1, “PYRAZOLE AMIDE BASED COMPOUNDS AND USES AGAINST BREAST CANCER THEREOF” (COUNCIL OF SCIENTIFIC AND INDUSTRIAL RESEARCH AN INDIAN …, priority 2021, published 2024):

What was measured:
[1] = tested on: proteins in the extrinsic and intrinsic pathway of apoptosis; test: Protein array for expression of apoptotic proteins; format: cell-based, human; conditions: MDA MB 231 lysates
Experimental: The expression of various proteins in the extrinsic and intrinsic pathway of apoptosis on treatment with NIIST-AC-1 was analyzed by using antibody pair-based assay, where the 43 targets were captured on a membrane. Lysates of control and treated cells were spotted to the membrane as protein equivalents. Paired biotinylated detector antibodies and streptavidin HRP were used for development using chemiluminescent method. Comparison of the membrane were done using densitometry software.

[2] = tested on: MDA MB 231 cells; test: Colony formation assay; format: cell-based, human; conditions: 48 hr pretreatment, 14 days
Experimental: The pretreated cells with different concentrations of NIIST-AC-1 for 48 hr were plated in six well plates and allowed to grow and colonize for 14 days. The colonies were stained with crystal violet for 2 hr after fixing with acetic acid and methanol. The visible colonies were photographed and the colon area was quantified using ImageJ 1.52p software.

[3] = tested on: MMP-9; test: Gelatin zymography for MMP activity; format: cell-based, human; conditions: gelatin zymography of spent medium
Experimental: The activity of MMPs in the spent medium from the cell culture was allowed to react with the substrate gelatin impregnated in the SDS-PAGE gel. After electrophoresis, the gel was washed with Triton solution and incubated with activation buffer 50 mM Tris containing 0.2 M NaCl and 5 mM CaCl2) at 37° C. for 18-20 h for reaction to occur. The gel was stained with Coomassie Brilliant Blue solution and after destaining, gelatin cleaved zones by MMPs were observed as white clear zones which were imaged using ChemiDoc™ MP System with IMAGE LAB™ Software (Bio-Rad).

[4] = tested on: MDA MB 231 cells; test: Phosphatidyl serine translocation by annexin V staining; format: cell-based, human; conditions: MDA MB 231, annexin V staining, 24 hrs
Experimental: The translocation of phosphatidyl serine to the outer leaflet of plasma membrane during apoptosis was studied by Annexin V-Cy3™ Apoptosis Detection Kit. After treatment with different concentrations of NIIST-AC-1 for 24 hrs, the cells were washed and stained with annexin V for 10 min. After the staining solution was removed, the binding buffer was added and the cells observed under a spinning disc fluorescent microscope (BD Biosciences), and images were taken using the software BD Atto Vision version 1.6.

[5] = tested on: caspase-3; test: Assay of caspase 3 (fluorometric, cell lysates); format: cell-based, human; conditions: MDA MB 231 cell lysates, DEVD-AFC
Experimental: (§1) The activities of the initiator caspase-9 and downstream executioner caspase-3 were measured using Fluorometric Assay Kit. The caspase activity in the cell lysates of control and treated cells were measured by using the fluorescent substrate DEVD-AFC (for caspase-3 activity) and LEHD-AFC (for caspase-9 activity). Samples were read at 400-nm excitation filter and 505-nm emission filter in a fluorescent microplate reader (BioTek Synergy HT) using Gen5™ ver 1.05.11 software, and the results were expressed as relative units in terms of fluorescence.

[6] = tested on: MDA MB 231 cells; test: Growth inhibitory study of I-8 in combination with paclitaxel; format: cell-based, human; conditions: 5 μM I-8 in combination with paclitaxel
[7] = tested on: MDA MB 231 cells; test: Nuclear fragmentation by DAPI staining; format: cell-based, human; conditions: MDA MB 231, DAPI staining, 24 hr
Experimental: Fragmentation of the nucleus on treatment with NIIST-AC-1 was analyzed using the cell permeable dye which binds to AT rich sequences in the minor groove of DNA. After treatment in 96 well culture plates for 24 hr, the cells were stained with DAPI for 20 min. The morphology of the stained nucleus was observed using a spinning disc fluorescent microscope at an excitation/emission of 360/460 nm (BD Pathway™ 855; Biosciences), and images were taken using the software BD Atto Vision™ version 1.6.

[8] = tested on: MDA MB 231 cells; test: Anoikis assay; format: cell-based, human; conditions: MDA MB 231, anoikis chamber, 48 hrs
Experimental: The effect of NIIST-AC-1 on anoikis resistance was analyzed using Anoikis Assay Kit by following the manufacturer's protocol. The cells were seeded in ultralow attachment plate 9anoikis chamber) after pretreating with different concentrations of NIIST-AC-1. After 48 hrs, the cells were observed under the phase-contrast microscope (Nikon Eclipse TS100) for observing the attachment and images were captured using NIS-Elements 3.21.00 imaging software. The viability of the cells was also measured by MTT assay.

[9] = tested on: MDA MB 231 cells; test: Cytotoxicity studies by MTT assay; format: cell-based; conditions: Homo sapiens, 24 hrs, read-out: GI50 (50% growth inhibition value)
Experimental: The cells used for the study, human breast adenocarcinoma (MDA-MB-231) and normal human lung fibroblast cells ([…]) were procured from NCCS, Pune, India, and ATCC, VA, USA, respectively. Cells were maintained in standard culture conditions in DMEM supplemented with 10% FBS and 100 units/ml penicillin/streptomycin under 5% CO2 at 37° C. in a humidified incubator. After 2-3 passages, the cells were seeded on cell culture dishes and were used for different experiments.
A 10 mM stock solution of I-8 was prepared in DMSO and diluted with DMEM supplemented with 5% FBS for each experiment so that the DMSO concentration was <0.1% in the treated cells. Paclitaxel at a concentration of 50 nM was used as the positive control.
MTT assay was used for testing the cytotoxicity of NIIST-AC-1 in MDA MB 231 cells. 1×10^4 cells/well were seeded in 96 well culture plates and were treated with different concentrations of NIIST-AC-1 for 24 hrs. The percentage of viable cells were monitored based on the purple colour developed by MTT at 570 nm and from that the concentration of NIIST-AC-1 required for 50% inhibition of the viability was calculated as the GI50 value.

[10] = tested on: MDA MB 231 cells; test: Measurement of mitochondrial membrane potential (JC-1); format: cell-based, human; conditions: MDA MB 231, JC-1, 24 h
Experimental: The cells were then treated with various concentrations of NIIST-AC-1 for 24 h. After removing the spent medium, 100 μl of freshly prepared JC-1 stain was added and samples were then incubated for 20 min in a CO2 incubator at 37° C. Immediately after the incubation, cells were observed under a spinning disc fluorescent microscope (BD Pathway 855), and images were taken using the software BD Atto Vision version 1.6.

[11] = tested on: caspase-9; test: Assay of caspase 9 (fluorometric, cell lysates); format: cell-based, human; conditions: MDA MB 231 cell lysates, LEHD-AFC
Experimental: as §1

Q: For `COc1cc(-c2cc(C(=O)NCc3cc(C(F)(F)F)cc(C(F)(F)F)c3)[nH]n2)cc(OC)c1OC` [I-8, N-(3,5-bis(trifluoromethyl)benzyl)-3-(3,4,5-trimethoxyphenyl)-1H-pyrazole-5-carboxamide], which “expression of apoptotic proteins (intrinsic and extrinsic pathways)” value [1] is on record?
A: upregulated the proteins involved in intrinsic and extrinsic pathways

Q: What about the colony formation [2] of the same molecule?
A: inhibition of colony formation

Q: What about the MMP-9 activity [3] of the same molecule?
A: reduced

Q: And the phosphatidyl serine translocation [4]?
A: phosphatidyl serine translocation

Q: What about the “caspase 3 activity” value [5] of the same molecule?
A: upregulated caspase activity

Q: And the “lowering of paclitaxel concentration required for 50% growth inhibition” value [6]?
A: 10 times

Q: What about the nuclear fragmentation [7] of the same molecule?
A: significant nuclear fragmentation

Q: And the “detachment induced cell death (anoikis)” value [8]?
A: induced detachment induced cell death (anoikis)

Q: What about the GI50 [9] of the same molecule?
A: 15.1 µM

Q: What about the mitochondrial membrane potential [10] of the same molecule?
A: loss of mitochondrial membrane potential

Q: What about the “caspase 9 activity” value [11] of the same molecule?
A: upregulated caspase activity
